Test results published in patent US7517676B2, “Human cyclooxygenase-3 enzyme and uses thereof” (Janssen Pharmaceutica N.V., priority 2003, dated 2009).

How the values were obtained:
[1] = target: T1, dog COX-3 (Canis lupus familiaris, UniProt Q8HZR1); settings: cited from earlier work
T1 sequence (Q8HZR1 1-633 isoform Q8HZR1-2): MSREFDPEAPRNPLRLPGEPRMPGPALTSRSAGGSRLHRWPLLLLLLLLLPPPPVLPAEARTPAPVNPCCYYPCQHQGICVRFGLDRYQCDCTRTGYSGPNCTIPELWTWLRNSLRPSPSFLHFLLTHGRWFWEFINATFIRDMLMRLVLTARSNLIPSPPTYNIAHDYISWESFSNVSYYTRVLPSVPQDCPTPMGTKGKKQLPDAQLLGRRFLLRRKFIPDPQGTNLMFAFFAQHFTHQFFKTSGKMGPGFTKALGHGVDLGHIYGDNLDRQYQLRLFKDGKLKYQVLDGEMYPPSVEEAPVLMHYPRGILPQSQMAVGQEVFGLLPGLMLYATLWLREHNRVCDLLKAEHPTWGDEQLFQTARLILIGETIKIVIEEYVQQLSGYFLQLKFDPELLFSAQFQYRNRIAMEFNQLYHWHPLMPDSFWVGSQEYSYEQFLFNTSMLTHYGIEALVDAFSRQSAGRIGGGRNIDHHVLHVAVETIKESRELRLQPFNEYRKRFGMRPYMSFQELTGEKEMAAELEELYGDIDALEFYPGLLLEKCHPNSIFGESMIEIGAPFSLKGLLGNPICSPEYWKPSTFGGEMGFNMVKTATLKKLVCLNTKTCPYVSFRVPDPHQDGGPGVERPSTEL

[2] = target: T2, human COX-3a (Homo sapiens, UniProt P23219); assay: COX activity assay: PGF2α formation from arachidonic acid by microsomes of Sf9 cells expressing hCOX-3a; format: biochemical; settings: synthesis of PGF2α from arachidonic acid; 20 μg microsomal membrane protein, room temperature, 5 minutes, pH 8.0
T2 construct: the full length human COX-3a cDNA was subcloned into pFastBac; made in house; host or cells: Sf9 insect cells (baculovirus, pFastBac); microsomal fraction
T2 sequence (P23219 1-630 isoform P23219-6): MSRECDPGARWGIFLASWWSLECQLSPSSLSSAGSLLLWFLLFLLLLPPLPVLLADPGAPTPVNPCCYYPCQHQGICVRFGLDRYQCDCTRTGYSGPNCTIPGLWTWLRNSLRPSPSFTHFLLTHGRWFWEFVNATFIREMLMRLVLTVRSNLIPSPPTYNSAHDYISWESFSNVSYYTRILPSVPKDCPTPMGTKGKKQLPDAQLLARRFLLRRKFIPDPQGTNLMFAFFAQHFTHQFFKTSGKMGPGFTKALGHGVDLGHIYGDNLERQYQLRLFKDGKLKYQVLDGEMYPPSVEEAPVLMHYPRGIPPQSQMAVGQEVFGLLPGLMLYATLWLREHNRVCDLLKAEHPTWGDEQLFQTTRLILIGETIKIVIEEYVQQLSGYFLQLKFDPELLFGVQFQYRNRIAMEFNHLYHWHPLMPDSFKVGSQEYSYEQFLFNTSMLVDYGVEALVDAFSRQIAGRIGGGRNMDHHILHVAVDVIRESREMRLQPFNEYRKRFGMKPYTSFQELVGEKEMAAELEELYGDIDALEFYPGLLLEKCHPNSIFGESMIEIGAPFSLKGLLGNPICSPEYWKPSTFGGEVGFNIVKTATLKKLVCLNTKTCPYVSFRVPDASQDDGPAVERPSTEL
Description: Microsomal protein fractions were prepared from Sf9 cells infected with the hCOX-3a recombinant baculovirus. Microsomal membrane protein (20 μg) was incubated with the indicated concentration of arachidonic acid in a volume of 150 μl buffer containing 0.1 M Tris-HCl (pH=8.0), 5 mM EDTA, 2 mM phenol and 1.5 μM […]. After incubating at room temperature for 5 minutes, the reaction was terminated by the addition of 40 μl of 1 N HCl with mixing. Samples were neutralized with 40 μl of 1 N NaOH. The formation of the PGF2α product was determined using a PGF2α immunoassay kit (Assay Designs, Inc.), as directed by the manufacturer.

[3] = tested on: ovarian cancer; settings: women who reported taking acetaminophen daily; prospective study; cited from earlier work
[4] = substrate concentration of 5 mM

## CCOc1ccc(NC(C)=O)cc1 [phenacetin]
[1]
  inhibition of dog COX-3 compared with murine COX-1 and -2: selectively inhibited

## CCCCC/C=C\C/C=C\C/C=C\C/C=C\CCCC(=O)O [arachidonic acid]
[2]
  Km: 0.54 µM
  Vmax: 3.07 pmol/mg/min

## CC(=O)Nc1ccc(O)cc1 [acetaminophen]
[1]
  inhibition of dog COX-3 compared with murine COX-1 and -2: selectively inhibited
[1]; [4]
  selectivity for inhibition of dog COX-3 versus murine COX-1: 2 fold
  selectivity for inhibition of dog COX-3 versus murine COX-2: 100 fold
[3]
  lower death rate from ovarian cancer than women reporting no use: 45%

## Cc1cc(=O)n(-c2ccccc2)n1C [antipyrine]
[1]
  inhibition of dog COX-3 compared with murine COX-1 and -2: selectively inhibited

## Cc1c(N(C)CS(=O)(=O)[O-])c(=O)n(-c2ccccc2)n1C.[Na+] [dipyrone]
[1]
  inhibition of dog COX-3 compared with murine COX-1 and -2: selectively inhibited
